# Counter-ions that a name gives are not always drawn.
# Biological target: T1, purified human Factor XIa (Homo sapiens, UniProt P03951)
# T1 construct: purchased Haematologic Technologies
# Assay: Factor XIa assay (chromogenic substrate S-2366 hydrolysis, Ki)
# Assay type: biochemical
# Settings: not given
# Protocol: The effectiveness of compounds of the present invention as inhibitors of the coagulation factors XIa, VIIa, IXa, Xa, XIIa, plasma kallikrein or thrombin, can be determined using a relevant purified serine protease, respectively, and an appropriate synthetic substrate. The rate of hydrolysis of the chromogenic or fluorogenic substrate by the relevant serine protease was measured both in the absence and presence of compounds of the present invention. […] A decrease in the rate of absorbance or fluorescence change in the presence of inhibitor is indicative of enzyme inhibition. Such methods are known to one skilled in the art. The results of this assay are expressed as the inhibitory constant, Ki.
# Values of Ki were determined by allowing the protease to react with the substrate in the presence of the inhibitor. Reactions were allowed to go for periods of 20-180 minutes (depending on the protease) and the velocities (rate of absorbance or fluorescence change versus time) were measured. The following relationships were used to calculate Ki values:
# vs/vo=A+((B−A)/1+((IC50/(I)^n))) and […]
# T1 sequence (P03951 19-387): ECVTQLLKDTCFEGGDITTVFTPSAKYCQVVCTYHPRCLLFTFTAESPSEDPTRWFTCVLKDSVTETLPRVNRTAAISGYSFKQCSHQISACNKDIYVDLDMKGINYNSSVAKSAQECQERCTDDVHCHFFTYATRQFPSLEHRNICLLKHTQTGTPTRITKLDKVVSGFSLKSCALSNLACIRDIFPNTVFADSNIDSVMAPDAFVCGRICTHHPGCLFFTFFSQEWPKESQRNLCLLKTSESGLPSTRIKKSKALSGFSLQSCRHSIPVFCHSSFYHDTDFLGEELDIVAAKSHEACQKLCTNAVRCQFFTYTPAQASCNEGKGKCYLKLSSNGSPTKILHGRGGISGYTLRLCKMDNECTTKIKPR
# T1 sequence (P03951 388-625): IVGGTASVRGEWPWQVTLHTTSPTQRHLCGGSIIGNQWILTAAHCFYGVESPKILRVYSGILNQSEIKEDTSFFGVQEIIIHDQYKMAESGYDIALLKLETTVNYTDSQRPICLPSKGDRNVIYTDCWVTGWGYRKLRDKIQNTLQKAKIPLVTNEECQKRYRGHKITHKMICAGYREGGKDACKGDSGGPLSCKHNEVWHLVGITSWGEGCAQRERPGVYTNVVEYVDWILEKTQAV
row,Compound,Ki
1,"Nc1nc2ccc(C(=O)N[C@@H](Cc3ccccc3)C(=O)NCCc3cc(Cl)ccc3-n3cnnn3)cc2s1 [Example 204, (S)-2-amino-N-(1-(5-chloro-2-(1H-tetrazol-1-yl)phenethylamino)-1-oxo-3-phenylpropan-2-yl)benzo[d]thiazole-6-carboxamide, TFA salt]",0.0276 µM
2,"O=C(N[C@@H](Cc1ccccc1)C(=O)NCCc1cc(Cl)ccc1-n1cnnn1)c1n[nH]c2ccccc12 [Example 149, (S)—N-(1-(5-chloro-2-(1H-tetrazol-1-yl)phenethylamino)-1-oxo-3-phenylpropan-2-yl)-1H-indazole-3-carboxamide]",6.5 µM
3,"O=C(/C=C/c1cc(Cl)ccc1-n1cnnn1)N[C@@H](CC(=O)NCCN1CCOCC1)C(=O)Nc1ccc(C(=O)O)cc1 [Example 286, (S,E)-4-(2-(3-(5-chloro-2-(1H-tetrazol-1-yl)phenyl)acrylamido)-4-(2-morpholinoethylamino)-4-oxobutanamido)benzoic acid, Trifluoroacetic acid salt]",0.481 µM
4,"COC[C@H](NC(=O)/C=C/c1cc(Cl)ccc1-n1cnnn1)C(=O)Nc1ccc(C(=O)O)cc1 [Example 254, (S,E)-4-(2-(3-(5-chloro-2-(1H-tetrazol-1-yl)phenyl)acrylamido)-3-methoxypropanamido)benzoic acid]",3.63 µM
5,"O=C1CSc2cc(C(=O)N[C@@H](Cc3ccccc3)C(=O)NCCc3cc(Cl)ccc3-n3cnnn3)ccc2N1 [Example 206, (S)—N-(1-(5-chloro-2-(1H-tetrazol-1-yl)phenethylamino)-1-oxo-3-phenylpropan-2-yl)-3-oxo-3,4-dihydro-2H-benzo[b][1,4]thiazine-7-carboxamide]",0.0195 µM
6,O=C(/C=C/c1cc(Cl)ccc1-n1cnnn1)N[C@@H](Cc1ccccc1)C(=O)N[C@@H]1CCCCNC1=O [Example 196],8.31 µM
7,"COC(=O)c1ccc(NC(=O)[C@H](Cc2cc(C)n(C)n2)NC(=O)/C=C/c2c(-n3cnnn3)ccc(Cl)c2F)nc1 [Example 216, (S,E)-methyl 6-(2-(3-(3-chloro-2-fluoro-6-(1H-tetrazol-1-yl)phenyl)acrylamido)-3-(1,5-dimethyl-1H-pyrazol-3-yl)propanamido)nicotinate, TFA salt]",0.0659 µM
8,"CCOC(=O)Cc1ccc(NC(=O)[C@H](Cc2ccccc2)NC(=O)CCc2cc(Cl)ccc2-n2cnnn2)cc1 [Example 1, (S)-ethyl 2-(4-(2-(3-(5-chloro-2-(1H-tetrazol-1-yl)phenyl)propan-amideo)-3-phenylpropanamido)phenyl)acetate]",0.14 µM
9,"N/C(=N/[N+](=O)[O-])NCCC[C@H](NC(=O)/C=C/c1cc(Cl)ccc1-n1cnnn1)C(=O)Nc1ccc(C(=O)O)cc1 [Example 253, 4-((S)-2-((E)-3-(5-chloro-2-(1H-tetrazol-1-yl)phenyl)acrylamido)-5-((Z)-2-nitroguanidino)pentanamido)benzoic acid]",0.0193 µM
10,"O=C(/C=C/c1c(F)ccc(Cl)c1F)N[C@@H](Cc1ccccc1)C(=O)Nc1ccc2cn[nH]c2c1 [Example 57, (E)-3-(3-chloro-2,6-difluoro-phenyl)-N—[(S)-1-(1H-indazol-6-ylcarbamoyl)-2-phenyl-ethyl]-acrylamide]",3.57 µM
11,"COC(=O)c1ccc2nc(NC(=O)[C@H](Cc3ccccc3)NC(=O)/C=C/c3cc(Cl)ccc3-n3cnnn3)nn2c1 [Example 92, (S,E)-methyl 2-(2-(3-(5-chloro-2-(1H-tetrazol-1-yl)phenyl)acrylamido)-3-phenylpropanamido)-[1,2,4]triazolo[1,5-a]pyridine-6-carboxylate]",0.0539 µM
12,"O=C(/C=C/c1cc(Cl)ccc1-n1cnnn1)N[C@@H](CC(=O)NCc1cnccn1)C(=O)Nc1ccc(C(=O)O)cc1 [Example 252, (S,E)-4-(2-(3-(5-chloro-2-(1H-tetrazol-1-yl)phenyl)acrylamido)-4-oxo-4-(pyrazin-2-ylmethylamino)butanamido)benzoic acid]",0.0162 µM

# Same assay, conditions: purified human Factor XIa 75-200 pM, substrate S-2366, 50 mM HEPES pH 7.4; read-out: Factor XIa Ki
row,Compound,Ki
1,"O=C(/C=C/c1cc(Cl)ccc1-n1cnnn1)N[C@@H](Cc1cccc(F)c1)C(=O)Nc1ccc(-c2nnn[nH]2)cc1 [Example 43, (E)-3-(5-chloro-2-tetrazol-1-yl-phenyl)-N-{(S)-2-(3-fluoro-phenyl)-1-[4-(1H-tetrazol-5-yl)-phenylcarbamoyl]-ethyl}-acrylamide]",0.00161 µM
2,"O=C(/C=C/c1cc(Cl)ccc1-n1cnnn1)N[C@@H](Cc1ccccc1)C(=O)Nc1ccc2c(c1)C(=O)NC2 [Example 129, (S,E)-3-(5-chloro-2-(1H-tetrazol-1-yl)phenyl)-N-(1-oxo-1-(3-oxoisoindolin-5-ylamino)-3-phenylpropan-2-yl)acrylamide]",0.0679 µM
3,"COC(=O)c1ccc(NC(=O)[C@H](Cc2ccccc2)NC(=O)/C=C/c2cc(Cl)ccc2-n2cnnn2)nc1 [Example 103, (S,E)-methyl 6-(2-(3-(5-chloro-2-(1H-tetrazol-1-yl)phenyl)acrylamido)-3-phenylpropanamido)nicotinate, TFA salt]",0.112 µM
4,"O=C(/C=C/c1cc(Cl)ccc1-n1cnnn1)N[C@@H](Cc1c[nH]c2ccccc12)C(=O)Nc1ccc(C(=O)O)cc1 [Example 238, (S,E)-4-(2-(3-(5-chloro-2-(1H-tetrazol-1-yl)phenyl)acrylamido)-3-(1H-indol-3-yl)propanamido)benzoic acid, TFA salt]",0.00466 µM
5,"O=C(/C=C/c1cc(Cl)ccc1-n1cnnn1)N[C@@H](Cc1ccccc1)C(=O)Nc1n[nH]c2ncccc12 [Example 137, (S,E)-N-(1-(1H-pyrazolo[3,4-b]pyridin-3-ylamino)-1-oxo-3-phenylpropan-2-yl)-3-(5-chloro-2-(1H-tetrazol-1-yl)phenyl)acrylamide, TFA salt]",0.0539 µM
6,"O=C(/C=C/c1cc(Cl)ccc1-n1cnnn1)N[C@@H](Cc1ccccc1)C(=O)Nc1ccc2c(c1)CCNC2 [Example 53, (E)-3-(5-chloro-2-tetrazol-1-yl-phenyl)-N—[(S)-2-phenyl-1-(1,2,3,4-tetrahydro-isoquinolin-6-ylcarbamoyl)-ethyl]-acrylamide]",0.244 µM
7,"Nc1n[nH]c2cc(NC(=O)[C@H](Cc3ccccc3)NC(=O)C[S+]([O-])c3cc(Cl)ccc3-n3cnnn3)ccc12 (single isomer, unassigned; isomer b) [Example 133]",0.672 µM
8,"CC[C@H](NC(=O)/C=C/c1cc(Cl)ccc1-n1cnnn1)C(=O)Nc1ccc(NC(=O)OC)cc1 [Example 50, (4-{(S)-2-[(E)-3-(5-chloro-2-tetrazol-1-yl-phenyl)-acryloylamino]-butyrylamino}-phenyl)-carbamic acid methyl ester]",1.12 µM
9,"CN1CCN(C(=O)C[C@H](NC(=O)/C=C/c2cc(Cl)ccc2-n2cnnn2)C(=O)Nc2ccc(C(=O)O)cc2)CC1 [Example 45, 4-[(S)-2-[(E)-3-(5-chloro-2-tetrazol-1-yl-phenyl)-acryloylamino]-4-(4-methyl-piperazin-1-yl)-4-oxo-butyrylamino]-benzoic acid]",0.0334 µM
10,"O=C(/C=C/c1cc(Cl)ccc1-n1cnnn1)N[C@@H](Cc1ccccc1)C(=O)Nc1ccc2[nH]ncc2c1 [Example 30, (E)-3-(5-chloro-2-tetrazol-1-yl-phenyl)-N—[(S)-1-(1H-indazol-5-ylcarbamoyl)-2-phenyl-ethyl]-acrylamide]",0.0126 µM
